One may read the IC50 as the concentration that inhibits the measured activity by half.

Values after ≈ are worked out from the molar mass of the structure shown. Numbered stars: 1 amine (or outer) side, 2 acyl side, 3 side chain; on linkers, the order of the positions; unused ones are H or OH. Bridge positions count the residues as written; N and C are the ends. Peptide text beside a SMILES is read from it. I, II: the chains in the order shown. OSiEt2O = CC[Si](CC)(O[*:1])O[*:2]

The subject of experiment [1] is Medulloblastome. Briefly: Effect on medulloblastomas.
Experiment [2] concerns BxPC3 (pankreatisches Adenokarzinom). As to the kind of experiment: MTT test, triplicate, two-fold dilutions. The class given is cell-based. As for the experimental part:
(§1) Die Silan wurden in Ethanol aufgelöst und in Zellkulturmedien in Konzentrationen von bis zu 500 µg/ml resuspendiert. Es wurden MTT Tests in dreifacher Ausführung durchgeführt, für welche doppelte Lösungen (7 Schritte) und colo205 (Kofon-Karzinom), BxPC3 (pankreatisches Adenokarzinom) sowie T47D (Brustkrebs) benutzt wurden.

Experiment [3] has as its system T47D (Brustkrebs). As to the kind of experiment: MTT test, triplicate, two-fold dilutions. The class given is cell-based. As for the experimental part:
as §1
(In general: Formazan colour is commonly taken as a measure of viable cells.)

Experiment [4] relates to colo205 (Kofon-Karzinom). As to the kind of experiment: MTT test, triplicate, two-fold dilutions. The experiment is classed as cell-based. As for the experimental part:
as §1

The test system of experiment [5] is A431 Epidermalkarzinom. As to the kind of experiment: MTT assay / EZ4U test, 4 days. The class given is cell-based. As for the experimental part: (§2) Die Silane 1, 5, 9, 10, 11, 13, 15, 16 wurden in Ethanol gelöst und in MTT Assays in einer anfänglichen Konzentration von 200 µg/ml (5 Lösungsschritte 200 - 12.5 µg/ml) verwendet. Die Platten wurde für eine Dauer.von 4 Tagen inkubiert und die Entwicklungsfähigkeit mithilfe des EZ4U Test bestimmt. Die IC50 Werte wurden ausgehend von Dosierungs-Reaktions-Linien berechnet Zelllinien: Colo 205 and HT29 - Kolonkarzinom; BxPC3 and MIAPaCa2 - Pankreaskrebs; CRO2B - karzinoid, A431 Epidermalkarzinom; normale Zellen: WI38 - humane embryonale Fibroblasten; NIH3T3 - mausartige Fibroblasten; IEC6 - mausartige Enterozyten.

In experiment [6] the test system is BxPC3 - Pankreaskrebs. Briefly: MTT assay / EZ4U test, 4 days. The class given is cell-based. As for the experimental part:
as §2

Experiment [7] deals with CRO2B - karzinoid. Briefly: MTT assay / EZ4U test, 4 days. The experiment is classed as cell-based. As for the experimental part: as §2
The subject of experiment [8] is Colo 205 - Kolonkarzinom. As to the kind of experiment: MTT assay / EZ4U test, 4 days. The experiment is classed as cell-based. As for the experimental part: as §2
In experiment [9] the test system is HT29 - Kolonkarzinom. Briefly: MTT assay / EZ4U test, 4 days. The class given is cell-based. As for the experimental part: as §2
Experiment [10] concerns IEC6 - mausartige Enterozyten. Briefly: MTT assay / EZ4U test, 4 days. The experiment is classed as cell-based. As for the experimental part:
as §2

The test system of experiment [11] is MIAPaCa2 - Pankreaskrebs. Briefly: MTT assay / EZ4U test, 4 days. The class given is cell-based. As for the experimental part: as §2
The test system of experiment [12] is NIH3T3 - mausartige Fibroblasten. As to the kind of experiment: MTT assay / EZ4U test, 4 days. The experiment is classed as cell-based. As for the experimental part: as §2
Experiment [13] deals with WI38 - humane embryonale Fibroblasten. As to the kind of experiment: MTT assay / EZ4U test, 4 days. The experiment is classed as cell-based. As for the experimental part:
as §2

For experiment [14], the system named is Krebszellen. Briefly: Mean IC50 over all cancer cell lines. The class given is cell-based. As for the experimental part: as §2
(§3) Mittelwerte-IC50 für alle Krebs- oder normalen Zelllinien: […]

Experiment [15] relates to Normale Zellen. Briefly: Mean IC50 over all normal cell lines. The experiment is classed as cell-based. As for the experimental part: as §2, §3
The subject of experiment [16] is Colo205 Kolonkarzinom. Briefly: subG1 apoptotic fraction, propidium iodide, flow cytometry. The experiment is classed as cell-based. The settings on record: 50 µg/ml, 4 Tage. As for the experimental part: (§4) Die Zellen (IEC6 mausartige Enterozyten; Panc1 Pankreaskrebszellen; Colo205 Kolonkarzinom) wurden mit 50 µg/ml Silanen inkubiert und nach 4-tägiger Aussetzung auf DNA eingefärbt (Propidiumiodid). Die SubG1 Zellteilung wurde mittels Durchflusscytometrie bestimmt.
A general note: Flow cytometry measures light scatter and fluorescence of single cells or particles in a stream.

Experiment [17] relates to IEC6 mausartige Enterozyten. Described as above. The experiment is classed as cell-based. The settings on record: 50 µg/ml, 4 Tage. As for the experimental part: as §4
Experiment [18] deals with Panc1 Pankreaskrebszellen. Described as above. Conditions: 50 µg/ml, 4 Tage. The experiment is classed as cell-based. As for the experimental part:
as §4

Setting [19] is: Homo sapiens, BXPC-3, read-out: IC50 BxPC3.
The mark [20] stands for this setting: Homo sapiens, COLO 205, read-out: IC50 Colo205.

Turning to `CC[Si](CC)(OC(=O)[C@H](Cc1ccccc1)NC(=O)[C@H](Cc1ccccc1)NC(=O)[C@H](Cc1ccccc1)NC(=O)[C@H](Cc1ccccc1)NC(=O)[C@H](Cc1ccccc1)NC(=O)[C@H](Cc1ccccc1)NC(=O)[C@H](Cc1ccccc1)NC(=O)[C@H](Cc1ccccc1)NC(=O)[C@@H](N)Cc1ccccc1)OC(=O)[C@H](Cc1ccccc1)NC(=O)[C@H](Cc1ccccc1)NC(=O)[C@H](Cc1ccccc1)NC(=O)[C@H](Cc1ccccc1)NC(=O)[C@H](Cc1ccccc1)NC(=O)[C@H](Cc1ccccc1)NC(=O)[C@H](Cc1ccccc1)NC(=O)[C@H](Cc1ccccc1)NC(=O)[C@@H](N)Cc1ccccc1` [Diethyl bis(nonaphenylalanyl)silylester] (I: H-FFFFFFFFF / II: H-FFFFFFFFF; linker I:C-II:C via OSiEt2O), in experiment [1], the “Wirkung gegen Medulloblastome” value is “zeigen eine Wirkung”.

With `CCCCCCCCCC(=O)O[Si](CC)(CC)OC(=O)CCCCCCCCC` [Si9, Didecanoyloxy - diethylslan], the “IC50 BxPC3” value in [2] (up to 500 µg/ml) turned out to be 15 µg/mL (≈ 35 µM); in [6] (200 - 12.5 µg/ml, 4 Tage), 40.0 µg/mL (≈ 93.3 µM). In addition, the “IC50 T47D” value in experiment [3] (up to 500 µg/ml) came out at 40 µg/mL (≈ 93.3 µM). The “IC50 Colo205” value turned out to be 60 µg/mL (≈ 140 µM) in experiment [4] (up to 500 µg/ml) and 40.6 µg/mL (≈ 94.7 µM) in experiment [8] (200 - 12.5 µg/ml, 4 Tage). In experiment [5] (200 - 12.5 µg/ml, 4 Tage), the “IC50 A431” value is 29.4 µg/mL (≈ 68.6 µM). Also, in [7] (200 - 12.5 µg/ml, 4 Tage), the “IC50 CR02B” value was 31.5 µg/mL (≈ 73.5 µM). Further, the “IC50 HT29” value in [9] (200 - 12.5 µg/ml, 4 Tage) turned out to be 41.5 µg/mL (≈ 96.8 µM). For the same molecule, in [10] (200 - 12.5 µg/ml, 4 Tage), the “IC50 IEC6” value was 17.2 µg/mL (≈ 40.1 µM). The “IC50 MlAPaCa2” value in experiment [11] (200 - 12.5 µg/ml, 4 Tage) was 37.5 µg/mL (≈ 87.5 µM). Moreover, in experiment [12] (200 - 12.5 µg/ml, 4 Tage), the “IC50 NIH3T3” value was found to be 34.4 µg/mL (≈ 80.2 µM). Also, the “IC50 WI38” value in experiment [13] (200 - 12.5 µg/ml, 4 Tage) was determined as 37.0 µg/mL (≈ 86.3 µM). In experiment [14] (mean over cancer cell lines), the “IC50 Krebszellen (Durchschnitt ± SD)” value is on record as 35,6 ± 6,0 µg/ml. Also, the “IC50 Normale Zellen (Durchschnitt ± SD)” value in experiment [15] (mean over normal cell lines) is 29,5 ± 10,8 µg/ml. In addition, the “subG1 apoptotische Zellteilung Colo205” value in [16] is 32,1 ± 1,41. The “subG1 apoptotische Zellteilung IEC6” value in experiment [17] is 0,9 ± 0.0. For the same molecule, the “subG1 apoptotische Zellteilung Panc1” value in experiment [18] is 42,8 ± 1,6.

On to `CCCCCCCCCCCCCCCCCC(=O)O[Si](CC)(CC)OC(=O)CCCCCCCCCCCCCCCCC` [Si13, Di (octadecanoyloxy) diethylsilan], for which the IC50 in experiment [2] (setting [19]) worked out at 10 µg/mL (≈ 15.3 µM); in [3] (Homo sapiens, T47D, read-out: IC50 T47D) it was 8 µg/mL (≈ 12.2 µM); in experiment [4] (setting [20]), 125 µg/mL (≈ 191 µM); in experiment [5] (Homo sapiens, A-431, read-out: IC50 A431), 15.9 µg/mL (≈ 24.3 µM); in experiment [6] (setting [19]), 17.5 µg/mL (≈ 26.8 µM); in experiment [7] (read-out: IC50 CR02B) it was 17.8 µg/mL (≈ 27.3 µM). For the same molecule, the IC50 in experiment [8] (setting [20]) turned out to be 47.5 µg/mL (≈ 72.7 µM); in experiment [9] (Homo sapiens, HT-29, read-out: IC50 HT29), 18.3 µg/mL (≈ 28 µM); in experiment [10] (Rattus norvegicus, IEC-6, read-out: IC50 IEC6), 17 µg/mL (≈ 26 µM); in experiment [11] (Homo sapiens, MIA PaCa-2, read-out: IC50 MlAPaCa2) it was 110 µg/mL (≈ 168 µM); in [12] (Mus musculus, NIH3T3, read-out: IC50 NIH3T3), 20.6 µg/mL (≈ 31.5 µM); in experiment [13] (Homo sapiens, WI-38, read-out: IC50 WI38) it was 16.5 µg/mL (≈ 25.3 µM). Also, the IC50 turned out to be 17.3 µg/mL (≈ 26.5 µM) in [14] (read-out: IC50 Krebszellen (Durchschnitt ± SD)) and 18 µg/mL (≈ 27.6 µM) in experiment [15] (read-out: IC50 Normale Zellen (Durchschnitt ± SD)). The “subG1 apoptotische Zellteilung Colo205” value in experiment [16] is listed as 4,8 ± 0,49. Moreover, in experiment [18], the “subG1 apoptotische Zellteilung Panc1” value is 36,7 ± 0,5.

Source of the values: EP1948196B1, “USE OF TETRAORGANOSILICON COMPOUNDS” (Salama, Zoser B., priority 2005, dated 2007).
